Laboratory results reported in patent US5972942A, “Inhibitors of farnesyl-protein transferase” (Merck & Co., Inc., priority 1997, dated 1999).
Structures can show the parent of a compound that is named as a salt.

Target: T1, human FPTase (Homo sapiens, UniProt P49354+P49356)
T1 construct: made in house
Test: In vitro inhibition of ras farnesyl transferase (human FPTase assay)
Format: biochemical
Settings: 100 nM Ras-CVIM, [3H]-farnesyl diphosphate, 30 min, read-out: IC50, inhibitory activity against human FPTase

T1 sequence (P49356 whole entry, one chain of several): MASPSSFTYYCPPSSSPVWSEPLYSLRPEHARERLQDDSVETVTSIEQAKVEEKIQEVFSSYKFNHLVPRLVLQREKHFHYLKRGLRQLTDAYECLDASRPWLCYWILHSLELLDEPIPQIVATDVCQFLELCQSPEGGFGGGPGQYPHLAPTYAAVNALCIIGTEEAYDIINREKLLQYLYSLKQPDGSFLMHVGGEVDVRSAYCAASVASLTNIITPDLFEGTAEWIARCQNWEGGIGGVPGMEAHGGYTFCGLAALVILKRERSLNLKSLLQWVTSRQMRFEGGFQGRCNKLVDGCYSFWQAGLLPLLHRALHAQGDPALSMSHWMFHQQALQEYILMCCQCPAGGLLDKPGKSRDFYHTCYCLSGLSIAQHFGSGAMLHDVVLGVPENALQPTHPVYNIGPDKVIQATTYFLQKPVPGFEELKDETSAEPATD

IC50: ≤ 50 µM
SMILES: CCCC[C@H]1CN(CC(F)(F)F)C(=O)CN1Cc1cncn1Cc1ccc(C#N)cc1 [Example 1, 2(S)-n-Butyl-1-[1-(4-cyanobenzyl)-5-imidazolylmethyl]-4-(2,2,2-trifluoroethyl)piperazin-5-one dihydrochloride]
